# Results as given in ChEMBL document CHEMBL3112480, “γ-Alkylidene-γ-lactones and isobutylpyrrol-2(5H)-ones analogues to rubrolides as inhibitors of biofilm formation by gram-positive and gram-negative bacteria” (Bioorg Med Chem Lett, 2014).
# Assays:
# Pseudomonas aeruginosa [1] = assay: Antibacterial activity against Pseudomonas aeruginosa ATCC 27853 assessed as effect on planktonic growth at 87.5 ug/ml after 20 hrs relative to control; format: functional
# Streptococcus mutans [2] = assay: Antibacterial activity against Streptococcus mutans ATCC 25175 assessed as effect on planktonic growth at 87.5 ug/ml after 20 hrs relative to control; format: functional
# Staphylococcus aureus [3] = assay: Antibacterial activity against Staphylococcus aureus ATCC 25923 assessed as effect on planktonic growth at 0.17 ug/ml after 20 hrs relative to control; format: functional
# Pseudomonas aeruginosa [4] = assay: Antibacterial activity against Pseudomonas aeruginosa ATCC 27853 assessed as effect on planktonic growth at 0.68 ug/ml after 20 hrs relative to control; format: functional
# Pseudomonas aeruginosa [5] = assay: Antibacterial activity against Pseudomonas aeruginosa ATCC 27853 assessed as effect on planktonic growth at 21.9 ug/ml after 20 hrs relative to control; format: functional
# [6] = tested on: Staphylococcus epidermidis; assay: Antibacterial activity against Staphylococcus epidermidis ATCC 35547 assessed as effect on planktonic growth at 2.73 ug/ml after 20 hrs relative to control; format: functional
# Staphylococcus aureus [7] = assay: Antibacterial activity against Staphylococcus aureus ATCC 25923 assessed as effect on planktonic growth at 87.5 ug/ml after 20 hrs relative to control; format: functional
# Staphylococcus aureus [8] = assay: Antibacterial activity against Staphylococcus aureus ATCC 25923 assessed as effect on planktonic growth at 21.9 ug/ml after 20 hrs relative to control; format: functional
# Streptococcus mutans [9] = assay: Antibacterial activity against Streptococcus mutans ATCC 25175 assessed as effect on planktonic growth at 21.9 ug/ml after 20 hrs relative to control; format: functional
# Pseudomonas aeruginosa [10] = assay: Antibacterial activity against Pseudomonas aeruginosa ATCC 27853 assessed as effect on planktonic growth at 0.34 ug/ml after 20 hrs relative to control; format: functional
# [11] = tested on: Staphylococcus epidermidis; assay: Antibacterial activity against Staphylococcus epidermidis ATCC 35547 assessed as effect on planktonic growth at 87.5 ug/ml after 20 hrs relative to control; format: functional
# Pseudomonas aeruginosa [12] = assay: Antibacterial activity against Pseudomonas aeruginosa ATCC 27853 assessed as effect on planktonic growth at 5.5 ug/ml after 20 hrs relative to control; format: functional
# Staphylococcus aureus [13] = assay: Antibacterial activity against Staphylococcus aureus ATCC 25923 assessed as effect on planktonic growth at 0.34 ug/ml after 20 hrs relative to control; format: functional
# Streptococcus mutans [14] = assay: Antibacterial activity against Streptococcus mutans ATCC 25175 assessed as effect on planktonic growth at 5.5 ug/ml after 20 hrs relative to control; format: functional
# Pseudomonas aeruginosa [15] = assay: Antibacterial activity against Pseudomonas aeruginosa ATCC 27853 assessed as effect on planktonic growth at 0.17 ug/ml after 20 hrs relative to control; format: functional
# Streptococcus mutans [16] = assay: Antibacterial activity against Streptococcus mutans ATCC 25175 assessed as effect on planktonic growth at 10.9 ug/ml after 20 hrs relative to control; format: functional
# Streptococcus mutans [17] = assay: Antibacterial activity against Streptococcus mutans ATCC 25175 assessed as effect on planktonic growth at 0.17 ug/ml after 20 hrs relative to control; format: functional
# [18] = tested on: Staphylococcus epidermidis; assay: Antibacterial activity against Staphylococcus epidermidis ATCC 35547 assessed as effect on planktonic growth at 0.34 ug/ml after 20 hrs relative to control; format: functional
# [19] = tested on: Staphylococcus epidermidis; assay: Antibacterial activity against Staphylococcus epidermidis ATCC 35547 assessed as effect on planktonic growth at 0.68 ug/ml after 20 hrs relative to control; format: functional
# [20] = tested on: Staphylococcus epidermidis; assay: Antibacterial activity against Staphylococcus epidermidis ATCC 35547 assessed as inhibition of biofilm formation after 20 hrs by crystal-violet staining method; format: functional, organism-based; conditions: for IC50: ATCC 35547, 20 h
# Pseudomonas aeruginosa [21] = assay: Antibacterial activity against Pseudomonas aeruginosa ATCC 27853 assessed as effect on planktonic growth at 43.8 ug/ml after 20 hrs relative to control; format: functional
# Staphylococcus aureus [22] = assay: Antibacterial activity against Staphylococcus aureus ATCC 25923 assessed as effect on planktonic growth at 1.37 ug/ml after 20 hrs relative to control; format: functional
# [23] = tested on: Staphylococcus epidermidis; assay: Antibacterial activity against Staphylococcus epidermidis ATCC 35547 assessed as effect on planktonic growth at 5.5 ug/ml after 20 hrs relative to control; format: functional
# Staphylococcus aureus [24] = assay: Antibacterial activity against Staphylococcus aureus ATCC 25923 assessed as effect on planktonic growth at 0.68 ug/ml after 20 hrs relative to control; format: functional
# Pseudomonas aeruginosa [25] = assay: Antibacterial activity against Pseudomonas aeruginosa ATCC 27853 assessed as inhibition of biofilm formation after 20 hrs by crystal-violet staining method; format: functional, organism-based; conditions: for IC50: ATCC 27853, 20 h
# [26] = tested on: Staphylococcus epidermidis; assay: Antibacterial activity against Staphylococcus epidermidis ATCC 35547 assessed as effect on planktonic growth at 0.17 ug/ml after 20 hrs relative to control; format: functional
# [27] = tested on: Staphylococcus epidermidis; assay: Antibacterial activity against Staphylococcus epidermidis ATCC 35547 assessed as effect on planktonic growth at 21.9 ug/ml after 20 hrs relative to control; format: functional
# Streptococcus mutans [28] = assay: Antibacterial activity against Streptococcus mutans ATCC 25175 assessed as effect on planktonic growth at 43.8 ug/ml after 20 hrs relative to control; format: functional
# Pseudomonas aeruginosa [29] = assay: Antibacterial activity against Pseudomonas aeruginosa ATCC 27853 assessed as effect on planktonic growth at 1.37 ug/ml after 20 hrs relative to control; format: functional
# [30] = tested on: Staphylococcus epidermidis; assay: Antibacterial activity against Staphylococcus epidermidis ATCC 35547 assessed as effect on planktonic growth at 1.37 ug/ml after 20 hrs relative to control; format: functional
# [31] = tested on: Staphylococcus epidermidis; assay: Antibacterial activity against Staphylococcus epidermidis ATCC 35547 assessed as effect on planktonic growth at 10.9 ug/ml after 20 hrs relative to control; format: functional
# Staphylococcus aureus [32] = assay: Antibacterial activity against Staphylococcus aureus ATCC 25923 assessed as effect on planktonic growth at 2.73 ug/ml after 20 hrs relative to control; format: functional
# Pseudomonas aeruginosa [33] = assay: Antibacterial activity against Pseudomonas aeruginosa ATCC 27853 assessed as effect on planktonic growth at 2.73 ug/ml after 20 hrs relative to control; format: functional
# Streptococcus mutans [34] = assay: Antibacterial activity against Streptococcus mutans ATCC 25175 assessed as effect on planktonic growth at 0.34 ug/ml after 20 hrs relative to control; format: functional
# Staphylococcus aureus [35] = assay: Antibacterial activity against Staphylococcus aureus ATCC 25923 assessed as effect on planktonic growth at 5.5 ug/ml after 20 hrs relative to control; format: functional
# Pseudomonas aeruginosa [36] = assay: Antibacterial activity against Pseudomonas aeruginosa ATCC 27853 assessed as effect on planktonic growth at 10.9 ug/ml after 20 hrs relative to control; format: functional
# Staphylococcus aureus [37] = assay: Antibacterial activity against Staphylococcus aureus ATCC 25923 assessed as effect on planktonic growth at 10.9 ug/ml after 20 hrs relative to control; format: functional
# Streptococcus mutans [38] = assay: Antibacterial activity against Streptococcus mutans ATCC 25175 assessed as effect on planktonic growth at 2.73 ug/ml after 20 hrs relative to control; format: functional
# Streptococcus mutans [39] = assay: Antibacterial activity against Streptococcus mutans ATCC 25175 assessed as effect on planktonic growth at 1.37 ug/ml after 20 hrs relative to control; format: functional
# [40] = tested on: Staphylococcus epidermidis; assay: Antibacterial activity against Staphylococcus epidermidis ATCC 35547 assessed as effect on planktonic growth at 43.8 ug/ml after 20 hrs relative to control; format: functional
# Staphylococcus aureus [41] = assay: Antibacterial activity against Staphylococcus aureus ATCC 25923 assessed as effect on planktonic growth at 43.8 ug/ml after 20 hrs relative to control; format: functional
# Streptococcus mutans [42] = assay: Antibacterial activity against Streptococcus mutans ATCC 25175 assessed as effect on planktonic growth at 0.68 ug/ml after 20 hrs relative to control; format: functional
smiles,measurement,setting,value
COc1ccc(C)cc1C1=C(Br)C(=O)N(CC(C)C)C1(O)Cc1ccccc1Cl (stereo not drawn),Activity,Pseudomonas aeruginosa [1],32.5%
same,Activity,Streptococcus mutans [2],15.3%
same,Activity,Staphylococcus aureus [3],-1.25%
same,Activity,Pseudomonas aeruginosa [4],-4.7%
same,Activity,Pseudomonas aeruginosa [5],-5.6%
same,Activity,[6],2.8%
same,Activity,Staphylococcus aureus [7],16.5%
same,Activity,Staphylococcus aureus [8],-10.75%
same,Activity,Streptococcus mutans [9],39.8%
same,Activity,Pseudomonas aeruginosa [10],-4.5%
same,Activity,[11],60.7%
same,Activity,Pseudomonas aeruginosa [12],-17.6%
same,Activity,Staphylococcus aureus [13],-0.5%
same,Activity,Streptococcus mutans [14],35.6%
same,Activity,Pseudomonas aeruginosa [15],-2.5%
same,Activity,Streptococcus mutans [16],28.7%
same,Activity,Streptococcus mutans [17],7.3%
same,Activity,[18],24.8%
same,Activity,[19],2.7%
same,inhibition,[20],Dose-dependent effect
same,IC50,[20],> 87.5 mg/L
same,Activity,Pseudomonas aeruginosa [21],17.1%
same,Activity,Staphylococcus aureus [22],-3%
same,Activity,[23],16.5%
same,Activity,Staphylococcus aureus [24],-2.5%
same,inhibition,Pseudomonas aeruginosa [25],Dose-dependent effect
same,IC50,Pseudomonas aeruginosa [25],> 87.5 mg/L
same,Activity,[26],6%
same,Activity,[27],34.6%
same,Activity,Streptococcus mutans [28],27.2%
same,Activity,Pseudomonas aeruginosa [29],-7.4%
same,Activity,[30],6.4%
same,Activity,[31],22.6%
same,Activity,Staphylococcus aureus [32],0.5%
same,Activity,Pseudomonas aeruginosa [33],-20.3%
same,Activity,Streptococcus mutans [34],11.1%
same,Activity,Staphylococcus aureus [35],5%
same,Activity,Pseudomonas aeruginosa [36],-17.5%
same,Activity,Staphylococcus aureus [37],-6.75%
same,Activity,Streptococcus mutans [38],30.7%
same,Activity,Streptococcus mutans [39],12.6%
same,Activity,[40],48.3%
same,Activity,Staphylococcus aureus [41],2.25%
same,Activity,Streptococcus mutans [42],13%
COc1ccc(Br)cc1C1=C(Br)C(=O)N(CC(C)C)/C1=C/c1ccc(Br)cc1,Activity,Pseudomonas aeruginosa [1],-8.2%
same,Activity,Streptococcus mutans [2],22.8%
same,Activity,Staphylococcus aureus [3],2.2%
same,Activity,Pseudomonas aeruginosa [4],-5.5%
same,Activity,Pseudomonas aeruginosa [5],-11.7%
same,Activity,[6],-5.7%
same,Activity,Staphylococcus aureus [7],68.6%
same,Activity,Staphylococcus aureus [8],27.8%
same,Activity,Streptococcus mutans [9],6%
same,Activity,Pseudomonas aeruginosa [10],2.6%
same,Activity,[11],11.4%
same,Activity,Pseudomonas aeruginosa [12],-16.1%
same,Activity,Staphylococcus aureus [13],6.3%
same,Activity,Streptococcus mutans [14],10.1%
same,Activity,Pseudomonas aeruginosa [15],0.9%
same,Activity,Streptococcus mutans [16],7.6%
same,Activity,Streptococcus mutans [17],13.9%
same,Activity,[18],0.4%
same,Activity,[19],-2.1%
same,inhibition,[20],Dose-dependent effect
same,IC50,[20],> 87.5 mg/L
same,Activity,Pseudomonas aeruginosa [21],-6.2%
same,Activity,Staphylococcus aureus [22],9.4%
same,Activity,[23],2.7%
same,Activity,Staphylococcus aureus [24],18.5%
same,inhibition,Pseudomonas aeruginosa [25],Dose-dependent effect
same,IC50,Pseudomonas aeruginosa [25],2.5 mg/L
same,Activity,[26],-3.3%
same,Activity,[27],-1%
same,Activity,Streptococcus mutans [28],9%
same,Activity,Pseudomonas aeruginosa [29],-19.3%
same,Activity,[30],-1.2%
same,Activity,[31],1%
same,Activity,Staphylococcus aureus [32],15.4%
same,Activity,Pseudomonas aeruginosa [33],-17.1%
same,Activity,Streptococcus mutans [34],12%
same,Activity,Staphylococcus aureus [35],14.9%
same,Activity,Pseudomonas aeruginosa [36],-15.5%
same,Activity,Staphylococcus aureus [37],16.8%
same,Activity,Streptococcus mutans [38],12%
same,Activity,Streptococcus mutans [39],-3.3%
same,Activity,[40],7.7%
same,Activity,Staphylococcus aureus [41],36.6%
same,Activity,Streptococcus mutans [42],14.4%
